Tests used:
Format in all cases: in vivo
Details in all cases: evaluated after 13 days
[1] = test system: Echinochloa crus-galli (ECHCG); assay: Pre-emergence herbicidal glasshouse test, Echinochloa crus-galli (ECHCG)
Protocol: (§1) Seeds of a variety of test species are sown in standard soil in pots (Lolium perenne (LOLPE), Amaranthus retoflexus (AMARE), Abutilon theophrasti (ABUTH), Setaria faberi (SETFA), Echinochloa crus-galli (ECHCG), Ipomoea hederacea (IPOHE)). After cultivation for one day (pre-emergence) or after 8 days cultivation (post-emergence) under controlled conditions in a glasshouse (at 24/16° C., day/night; 14 hours light; 65% humidity), the plants are sprayed with an aqueous spray solution derived from the formulation of the technical active ingredient in acetone/water (50:50) solution containing 0.5% Tween 20 (polyoxyethelyene sorbitan monolaurate, CAS RN 9005-64-5). Compounds are applied at 500 g/h unless otherwise indicated. The test plants are then grown in a glasshouse under controlled conditions in a glasshouse (at 24/16° C., day/night; 14 hours light; 65% humidity) and watered twice daily. After 13 days for pre and post-emergence, the test is evaluated for the percentage damage caused to the plant. The biological activities are shown in the following table on a five point scale (5=80-100%; 4=60-79%; 3=40-59%; 2=20-39%; 1=0-19%).

[2] = test system: Amaranthus retoflexus (AMARE); assay: Post-emergence herbicidal glasshouse test, Amaranthus retoflexus (AMARE)
Protocol: as §1

[3] = test system: Ipomoea hederacea (IPOHE); assay: Post-emergence herbicidal glasshouse test, Ipomoea hederacea (IPOHE)
Protocol: as §1

[4] = test system: Echinochloa crus-galli (ECHCG); assay: Post-emergence herbicidal glasshouse test, Echinochloa crus-galli (ECHCG)
Protocol: as §1

[5] = test system: Setaria faberi (SETFA); assay: Post-emergence herbicidal glasshouse test, Setaria faberi (SETFA)
Protocol: as §1

[6] = test system: Setaria faberi (SETFA); assay: Pre-emergence herbicidal glasshouse test, Setaria faberi (SETFA)
Protocol: as §1

[7] = test system: Abutilon theophrasti (ABUTH); assay: Pre-emergence herbicidal glasshouse test, Abutilon theophrasti (ABUTH)
Protocol: as §1

[8] = test system: Amaranthus retoflexus (AMARE); assay: Pre-emergence herbicidal glasshouse test, Amaranthus retoflexus (AMARE)
Protocol: as §1

[9] = test system: Abutilon theophrasti (ABUTH); assay: Post-emergence herbicidal glasshouse test, Abutilon theophrasti (ABUTH)
Protocol: as §1

[10] = test system: Ipomoea hederacea (IPOHE); assay: Pre-emergence herbicidal glasshouse test, Ipomoea hederacea (IPOHE)
Protocol: as §1

Row | SMILES | PRE Application ECHCG, percentage damage (five point scale) ([1]; 500 g/h) | POST Application AMARE, percentage damage (five point scale) ([2]; 500 g/h) | POST Application IPOHE, percentage damage (five point scale) ([3]; 500 g/h) | POST Application ECHCG, percentage damage (five point scale) ([4]; 500 g/h) | POST Application SETFA, percentage damage (five point scale) ([5]; 500 g/h) | PRE Application SETFA, percentage damage (five point scale) ([6]; 500 g/h) | PRE Application ABUTH, percentage damage (five point scale) ([7]; 500 g/h) | PRE Application AMARE, percentage damage (five point scale) ([8]; 500 g/h) | POST Application ABUTH, percentage damage (five point scale) ([9]; 500 g/h) | PRE Application IPOHE, percentage damage (five point scale) ([10]; 500 g/h) | PRE Application ECHCG, percentage damage (five point scale) ([1]; applied at 250 g/ha) | POST Application AMARE, percentage damage (five point scale) ([2]; applied at 250 g/ha) | POST Application IPOHE, percentage damage (five point scale) ([3]; applied at 250 g/ha) | POST Application ECHCG, percentage damage (five point scale) ([4]; applied at 250 g/ha) | POST Application SETFA, percentage damage (five point scale) ([5]; applied at 250 g/ha) | PRE Application SETFA, percentage damage (five point scale) ([6]; applied at 250 g/ha) | PRE Application ABUTH, percentage damage (five point scale) ([7]; applied at 250 g/ha) | PRE Application AMARE, percentage damage (five point scale) ([8]; applied at 250 g/ha) | POST Application ABUTH, percentage damage (five point scale) ([9]; applied at 250 g/ha) | PRE Application IPOHE, percentage damage (five point scale) ([10]; applied at 250 g/ha)
1 | CN(C)C(=Nc1c(C(F)(F)F)ccc(C(=O)Nc2nnnn2C)c1Cl)C(F)(F)F [Compound 1.139] | 5 (5=80-100%) | 5 (5=80-100%) | 4 (4=60-79%) | 5 (5=80-100%) | 5 (5=80-100%) | 5 (5=80-100%) | 5 (5=80-100%) | 5 (5=80-100%) | 5 (5=80-100%) | 5 (5=80-100%) |  |  |  |  |  |  |  |  |  | 
2 | CC(C)N(C)C=Nc1c(C(F)(F)F)ccc(C(=O)Nc2nnnn2C)c1Cl [Compound 1.140] | 5 (5=80-100%) | 5 (5=80-100%) | 5 (5=80-100%) | 5 (5=80-100%) | 5 (5=80-100%) | 5 (5=80-100%) | 5 (5=80-100%) | 5 (5=80-100%) | 5 (5=80-100%) | 5 (5=80-100%) |  |  |  |  |  |  |  |  |  | 
3 | CN(C=Nc1c(S(C)(=O)=O)ccc(C(=O)Nc2nnnn2C)c1Cl)CC(F)(F)F [Compound 1.142] |  |  |  |  |  |  |  |  |  |  | 5 (5=80-100%) | 5 (5=80-100%) | 5 (5=80-100%) | 5 (5=80-100%) | 5 (5=80-100%) | 5 (5=80-100%) | 5 (5=80-100%) | 5 (5=80-100%) | 5 (5=80-100%) | 4 (4=60-79%)
4 | Cc1c(C(=O)Nc2nnnn2C)ccc(S(C)(=O)=O)c1N=CN(C)C(C)C [Compound 1.144] | 5 (5=80-100%) | 5 (5=80-100%) | 5 (5=80-100%) | 5 (5=80-100%) | 5 (5=80-100%) | 5 (5=80-100%) | 5 (5=80-100%) | 5 (5=80-100%) | 5 (5=80-100%) | 5 (5=80-100%) |  |  |  |  |  |  |  |  |  | 
5 | CN(C=Nc1c(S(C)(=O)=O)ccc(C(=O)Nc2nnnn2C)c1Cl)c1ccccc1 [Compound 1.145] | 5 (5=80-100%) | 4 (4=60-79%) | 4 (4=60-79%) | 5 (5=80-100%) | 5 (5=80-100%) | 5 (5=80-100%) | 5 (5=80-100%) | 5 (5=80-100%) | 3 (3=40-59%) | 4 (4=60-79%) |  |  |  |  |  |  |  |  |  | 
6 | CC(=Nc1c(C(F)(F)F)ccc(C(=O)Nc2nnnn2C)c1Cl)N(C)C [Compound 1.148] | 5 (5=80-100%) | 5 (5=80-100%) | 4 (4=60-79%) | 5 (5=80-100%) | 5 (5=80-100%) | 5 (5=80-100%) | 5 (5=80-100%) | 5 (5=80-100%) | 4 (4=60-79%) | 5 (5=80-100%) |  |  |  |  |  |  |  |  |  | 
7 | Cc1nnc(NC(=O)c2ccc(C(F)(F)F)c(N=CN(C)C)c2C)o1 [Compound 2.017] | 5 (5=80-100%) | 5 (5=80-100%) | 4 (4=60-79%) | 5 (5=80-100%) | 5 (5=80-100%) | 4 (4=60-79%) | 5 (5=80-100%) | 5 (5=80-100%) | 4 (4=60-79%) | 5 (5=80-100%) |  |  |  |  |  |  |  |  |  | 
8 | Cc1nnc(NC(=O)c2ccc(S(C)(=O)=O)c(N=CN(C)C)c2C)o1 [Compound 2.025] | 5 (5=80-100%) | 5 (5=80-100%) | 5 (5=80-100%) | 5 (5=80-100%) | 5 (5=80-100%) | 5 (5=80-100%) | 5 (5=80-100%) | 5 (5=80-100%) | 5 (5=80-100%) | 3 (3=40-59%) |  |  |  |  |  |  |  |  |  | 
9 | CCN(C)C=Nc1c(S(C)(=O)=O)ccc(C(=O)Nc2nnc(C)o2)c1C [Compound 2.027] | 5 (5=80-100%) | 5 (5=80-100%) | 5 (5=80-100%) | 5 (5=80-100%) | 5 (5=80-100%) | 5 (5=80-100%) | 5 (5=80-100%) | 5 (5=80-100%) | 5 (5=80-100%) | 4 (4=60-79%) |  |  |  |  |  |  |  |  |  | 
10 | CCN(C=Nc1c(S(C)(=O)=O)ccc(C(=O)Nc2nnc(C)o2)c1C)CC [Compound 2.031] | 5 (5=80-100%) | 5 (5=80-100%) | 4 (4=60-79%) | 5 (5=80-100%) | 5 (5=80-100%) | 5 (5=80-100%) | 4 (4=60-79%) | 5 (5=80-100%) | 5 (5=80-100%) | 4 (4=60-79%) |  |  |  |  |  |  |  |  |  | 
11 | Cc1nnc(NC(=O)c2ccc(C(F)(F)F)c(/N=C/N(C)C)c2Cl)o1 [Compound 2.049, 2-chloro-3-[(E)-dimethylaminomethyleneamino]-N-(5-methyl-1,3,4-oxadiazol-2-yl)-4-(trifluoromethyl)benzamide] | 5 (5=80-100%) | 5 (5=80-100%) | 5 (5=80-100%) | 5 (5=80-100%) | 5 (5=80-100%) | 5 (5=80-100%) | 5 (5=80-100%) | 5 (5=80-100%) | 5 (5=80-100%) | 5 (5=80-100%) |  |  |  |  |  |  |  |  |  | 
12 | CCN(C=Nc1c(C(F)(F)F)ccc(C(=O)Nc2nnc(C)o2)c1Cl)CC [Compound 2.055] | 5 (5=80-100%) | 5 (5=80-100%) | 4 (4=60-79%) | 5 (5=80-100%) | 5 (5=80-100%) | 5 (5=80-100%) | 5 (5=80-100%) | 5 (5=80-100%) | 4 (4=60-79%) | 5 (5=80-100%) |  |  |  |  |  |  |  |  |  | 
